# In US7396848B1, “Neurotrophin production/secretion promoting agent” (Takeda Pharmaceutical Company Limited, priority 2000, dated 2008):
# Test system: NGF
# Assay: NGF production/secretion promoting activity in cultured Schwann cells (enzyme immunoassay of culture fluid)
# Assay type: cell-based, SD rats
# Settings: 24 hours, concentrations of 10^−4 M to 10^−8 M, result in words
# Method: Schwann cells were prepared by subjecting the dorsal spinal root ganglion collected from 10 newborn SD rats to enzyme treatment using 0.25% trypsin containing 0.01% deoxyribonuclease (DNase, produced by Sigma), followed by cloning from the cell group obtained. […]
# The culture fluid obtained in each run of Reference Example 1A was recovered and assayed for the neurotrophin content therein. […] After washing, 30 μl of 4-methylumbelliferyl-β-D-galactoside (produced by Sigma) (10 μg/μl) was added to the substrate, the reaction was allowed to proceed at room temperature for 4 hours and then terminated by addition of 130 μl of 0.1 M glycine-sodium hydroxide buffer (pH 10.3), and the fluorescent intensity of the 4-methylumbelliferone produced was determined (Ex: 360 nm; Em: 450 nm). The amount of NGF was calculated based on a standard curve and expressed in terms of relative multiplicity in relation to the amount of NGF (control) produced and secreted by cells treated in the same manner without adding the test compound. […]
row,SMILES,NGF production/secretion promoting activity
1,"COc1ccccc1OCCCc1oc(-n2ccnc2C)nc1-c1ccc(Cl)cc1 [Compound (1), 4-(4-chlorophenyl)-5-[3-(2-methoxyphenoxy)propyl]-2-(2-methyl-1-imidazolyl)oxazole]",excellent

# Test system: BDNF
# Assay: BDNF production/secretion promoting activity in cultured Schwann cells (enzyme immunoassay of culture fluid)
# Assay type: cell-based, SD rats
# Settings: 24 hours, concentrations of 10^−4 M to 10^−8 M, result in words
row,SMILES,BDNF production/secretion promoting activity
1,"COc1ccccc1OCCCc1oc(-n2ccnc2C)nc1-c1ccc(Cl)cc1 [Compound (1), 4-(4-chlorophenyl)-5-[3-(2-methoxyphenoxy)propyl]-2-(2-methyl-1-imidazolyl)oxazole]",excellent

# Test system: not given
# Assay: not given
# Settings: not given
row,melting point,SMILES
1,114 to 115 °C,"CCOC(=O)CCCc1sc(N)nc1-c1ccc(Cl)cc1 [Example 22, ethyl 2-amino-4-(4-chlorophenyl)-5-thiazolebutanoate]"
2,98 to 99 °C,"Cc1nccn1-c1nc(-c2ccc(Cl)cc2)c(CCCCO)s1 [Example 24, 4-(4-chlorophenyl)-2-(2-methyl-1-imidazolyl)-5-thiazolebutanol]"
3,81 to 82 °C,"COc1ccccc1OCCCc1oc(N2CCOCC2)nc1-c1ccc(Cl)cc1 [Example 39, 4-(4-chlorophenyl)-2-(4-morpholinyl)-5-[3-(2-methoxyphenoxy)propyl]oxazole]"
4,80 to 81 °C,"CCOC(=O)C1CCN(c2nc(-c3ccc(Cl)cc3)c(CCCOc3ccccc3OC)o2)CC1 [Example 40, ethyl N-[4-(4-chlorophenyl)-5-[3-(2-methoxyphenoxy)propyl]-2-oxazolyl]isonipecotate]"
5,118 to 119 °C,"COc1ccccc1OCCCc1oc(-n2cnc(-c3ccccc3)c2-c2ccccc2)nc1-c1ccc(Cl)cc1 [Example 42, 4-(4-chlorophenyl)-2-(4,5-diphenyl-1-imidazolyl)-5-[3-(2-methoxyphenoxy)propyl]oxazole]"
6,113 to 114 °C,"Cc1ccccc1OCCCc1oc(-n2ccnc2)nc1-c1ccc(Cl)cc1 [Example 55, 4-(4-chlorophenyl)-2-(1-imidazolyl)-5-[3-(2-methylphenoxy)propyl]oxazole]"
7,91 to 92 °C,"CCc1nccn1-c1nc(-c2ccc(Cl)cc2)c(CCCOc2ccccc2C)o1 [Example 56, 4-(4-chlorophenyl)-2-(2-ethyl-1-imidazolyl)-5-[3-(2-methylphenoxy)propyl]oxazole]"
8,78 to 79 °C,"CCc1nccn1-c1nc(-c2ccc(Cl)cc2)c(CCCOc2ccccc2OC)o1 [Example 57, 4-(4-chlorophenyl)-2-(2-ethyl-1-imidazolyl)-5-[3-(2-methoxyphenoxy)propyl]oxazole]"
9,110 to 111 °C,"Cc1nccn1-c1nc(-c2ccc(Cl)cc2)c(CCCOc2ccccc2O)o1 [Example 61, 4-(4-chlorophenyl)-5-[3-(2-hydroxyphenoxy)propyl]-2-(2-methyl-1-imidazolyl)oxazole]"
10,90 to 91 °C,"CCOC(=O)c1nccn1-c1nc(-c2ccc(Cl)cc2)c(CCCOc2ccccc2OC)o1 [Example 69, ethyl 1-[4-(4-chlorophenyl)-5-[3-(2-methoxyphenoxy)propyl]-2-oxazolyl]imidazole-2-carboxylate]"
11,103 to 104 °C,"Cc1cc(C)n(-c2nc(-c3ccc(Cl)cc3)c(CCCOc3ccccc3C)o2)n1 [Example 72, 4-(4-chlorophenyl)-2-(3,5-dimethyl-1-pyrazolyl)-5-[3-(2-methylphenoxy)propyl]oxazole]"
12,89 to 90 °C,"CCCc1nccn1-c1nc(-c2ccc(Cl)cc2)c(CCCOc2ccccc2OC)o1 [Example 83, 4-(4-chlorophenyl)-5-[3-(2-methoxyphenoxy)propyl]-2-(2-propyl-1-imidazolyl)oxazole]"
13,53 to 54 °C,"CCCCCCCCCCCc1nccn1-c1nc(-c2ccc(Cl)cc2)c(CCCOc2ccccc2OC)o1 [Example 84, 4-(4-chlorophenyl)-5-[3-(2-methoxyphenoxy)propyl]-2-(2-undecyl-1-imidazolyl)oxazole]"
14,119 to 120 °C,"Cc1nccn1-c1nc(-c2ccc(Cl)cc2)c(CCCOc2ccccc2CCCO)o1 [Example 93, 4-(4-chlorophenyl)-5-[3-(2-(3-hydroxypropyl)phenoxy)propyl]-2-(2-methyl-1-imidazolyl)oxazole]"
15,184 to 185 °C,"Cc1nccn1-c1nc(-c2ccc(Cl)cc2)c(CCCOc2ccccc2CCC(=O)O)o1 [Example 94, 3-[2-[3-[4-(4-chlorophenyl)-2-(2-methyl-1-imidazolyl)-5-oxazolyl]propoxy]phenyl]propionic acid]"
16,112 to 113 °C,"Cc1ccccc1OCCCc1sc(-n2ccnc2C)nc1-c1ccc(Cl)cc1 [Example 96, 4-(4-chlorophenyl)-2-(2-methyl-1-imidazolyl)-5-[3-(2-methylphenoxy)propyl]thiazole]"
17,77 to 79 °C,"Cc1nccn1-c1nc(-c2ccc(Cl)s2)c(CCCCO)o1 [Example 99, 4-(5-chloro-2-thienyl)-2-(2-methyl-1-imidazolyl)-5-oxazolebutanol]"
18,97 to 98 °C,"Cc1nccn1-c1nc(-c2ccc(F)cc2)c(CCCCO)o1 [Example 102, 4-(4-fluorophenyl)-2-(2-methyl-1-imidazolyl)-5-oxazolebutanol]"
19,115 to 116 °C,"Cc1cccc(Cl)c1CCCOc1oc(-n2ccnc2C)nc1-c1ccc(Cl)cc1 [Example 109, 5-[3-(2-chloro-6-methylphenyl)propyloxy]-4-(4-chlorophenyl)-2-(2-methyl-1-imidazolyl)oxazole]"
20,175 to 176 °C,"Cc1cc(O)ccc1OCCCc1oc(-n2ccnc2C)nc1-c1ccc(Cl)cc1 [Example 113, 4-[3-[4-(4-chlorophenyl)-2-(2-methyl-1-imidazolyl)-5-oxazolyl]propyloxy]-3-methylphenol]"
21,94 to 95 °C,"COC(=O)CCc1oc(-n2ccnc2C)nc1-c1ccc(C(F)(F)F)cc1 [Example 116, methyl 2-(2-methyl-1-imidazolyl)-4-(4-trifluoromethylphenyl)-5-oxazolepropionate]"
22,116 to 117 °C,"COC(=O)CCc1oc(-n2ccnc2C)nc1-c1ccc(Cl)c(Cl)c1 [Example 117, methyl 4-(3,4-dichlorophenyl)-2-(2-methyl-1-imidazolyl)-5-oxazolepropionate]"
23,127 to 129 °C,"Cc1nccn1-c1nc(-c2ccc(C(F)(F)F)cc2)c(CCCO)o1 [Example 118, 2-(2-methyl-1-imidazolyl)-4-(4-trifluoromethylphenyl)-5-oxazolepropanol]"
24,140 to 141 °C,"Cc1nccn1-c1nc(-c2ccc(Cl)c(Cl)c2)c(CCCO)o1 [Example 119, 4-(3,4-dichlorophenyl)-2-(2-methyl-1-imidazolyl)-5-oxazolepropanol]"
